Measured values as given in patent publication US20240158446A1, “CYCLIC COMPOUND HAVING SELECTIVE INHIBITORY ACTION ON KRAS OVER HRAS AND NRAS” (CHUGAI SEIYAKU KABUSHIKI KAISHA, priority 2021, published 2024).
Read-outs that look alike come from different tables or passages of the source.

Experiments:
[1] = tested on: human lung cancer strain NCI-H441; details: read-out: NCI-H441 cell proliferation inhibitory activity, 50% proliferation inhibitory concentration (IC50 value); NCI-H441, four days, CellTiter-Glo;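 also: cell proliferation inhibition after four days measured by CellTiter-Glo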
[2] = molecular target: GDP-bound NRAS wild-type protein (Homo sapiens, UniProt P01111); assay: Binding to NRAS by surface plasmon resonance (SPR), Single Cycle Kinetics; details: SPR; for NRAS/KRAS (ratio of KD value for NRAS to KD value for KRAS): GDP-bound NRAS wild-type protein vs GDP-bound KRAS wild-type protein
Chain of GDP-bound NRAS wild-type protein (P01111 whole entry): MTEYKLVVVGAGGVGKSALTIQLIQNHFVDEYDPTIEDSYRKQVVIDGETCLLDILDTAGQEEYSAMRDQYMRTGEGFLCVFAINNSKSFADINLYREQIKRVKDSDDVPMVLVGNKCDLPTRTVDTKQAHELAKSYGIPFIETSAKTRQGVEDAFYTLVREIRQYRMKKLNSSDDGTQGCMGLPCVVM

[3] = molecular target: GDP-bound HRAS wild-type protein (Homo sapiens, UniProt P01112); assay: Binding to HRAS by surface plasmon resonance (SPR), Single Cycle Kinetics; details: SPR; for HRAS/KRAS (ratio of KD value for HRAS to KD value for KRAS): GDP-bound HRAS wild-type protein vs GDP-bound KRAS wild-type protein
Chain of GDP-bound HRAS wild-type protein (P01112 whole entry): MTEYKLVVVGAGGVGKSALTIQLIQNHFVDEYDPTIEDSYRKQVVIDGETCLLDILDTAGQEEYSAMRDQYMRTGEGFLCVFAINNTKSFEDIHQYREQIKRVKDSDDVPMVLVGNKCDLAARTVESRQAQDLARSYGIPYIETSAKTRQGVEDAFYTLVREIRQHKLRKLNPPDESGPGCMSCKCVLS

[4] = molecular target: GDP-bound KRAS wild-type protein (Homo sapiens, UniProt P01116); assay: Binding to KRAS by surface plasmon resonance (SPR), Single Cycle Kinetics; details: SPR, Single Cycle Kinetics
Chain of GDP-bound KRAS wild-type protein (P01116 whole entry): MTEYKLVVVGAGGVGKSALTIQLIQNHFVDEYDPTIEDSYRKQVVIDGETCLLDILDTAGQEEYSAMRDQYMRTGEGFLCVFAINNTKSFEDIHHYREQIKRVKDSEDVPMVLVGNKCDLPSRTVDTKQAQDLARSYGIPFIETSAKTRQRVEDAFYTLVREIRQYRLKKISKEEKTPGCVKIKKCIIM

[5] = 1:1 binding model, read-out: KD value with respect to GDP-bound KRAS wild-type protein
[6] = GDP-bound KRAS wild-type protein, read-out: KRAS KD

| Structure (SMILES) | IC50 [1] [nM] | NRAS/KRAS (ratio of KD value for NRAS to KD value for KRAS) [2] | ratio of the KD value with respect to GDP-bound NRAS wild-type protein to the KD value with respect to KRAS [2] | HRAS/KRAS (ratio of KD value for HRAS to KD value for KRAS) [3] | ratio of the KD value with respect to GDP-bound HRAS wild-type protein to the KD value with respect to KRAS [3] | Kd [4, 5] [nM] | Kd [4, 6] [nM] |
| --- | --- | --- | --- | --- | --- | --- | --- |
| CCC[C@H]1C(=O)N[C@@H]([C@@H](C)CC)C(=O)N2CCC[C@H]2C(=O)N(C)[C@H]2C/C=C\CCN(C2=O)[C@@H](Cc2ccc(C)cc2)C(=O)N(C)CC(=O)N[C@@H](CCc2ccc(C(F)(F)F)c(OC)c2)C(=O)N2C[C@H](OCC)C[C@H]2C(=O)N(C)C2(CCC2)C(=O)N(C)[C@@H](C2CCCC2)C(=O)N(C)[C@H](C(=O)N2CCCCC2)CC(=O)N1C [PP3100, (1S,4S,10S,13S,17S,20S,26S,28R,32S,38S,42Z)-20-cyclopentyl-28-ethoxy-32-[2-[3-methoxy-4-(trifluoromethyl)phenyl]ethyl]-2,14,18,21,24,36-hexamethyl-10-[(1S)-1-methylpropyl]-17-(piperidine-1-carbonyl)-13-propyl-38-(p-tolylmethyl)spiro[2,8,11,14,18,21,24,30,33,36,39-undecazatetracyclo[37.5.1.0^4,8.0^26,30]pentatetracont-42-ene-23,1′-cyclobutane]-3,9,12,15,19,22,25,31,34,37,45-undecone] | 15 | A (a compound having 10 or more and less than 20 is denoted as A) | A (a compound having 10 or more and less than 20 is denoted as A) | B (a compound having 3 or more and less than 10 is denoted as B) | B (a compound having 3 or more and less than 10 is denoted as B) | 0.29 | 0.29 |
| CCC[C@H]1C(=O)N[C@@H]([C@@H](C)CC)C(=O)N2CCC[C@H]2C(=O)N(C)[C@H]2C/C=C\CCN(C2=O)[C@@H](Cc2ccc(C(F)(F)F)cc2)C(=O)N(C)CC(=O)N[C@@H](CCc2ccc(C(F)(F)F)c(OC)c2)C(=O)N2C[C@H](OCC)C[C@H]2C(=O)N(C)C2(CCC2)C(=O)N(C)[C@@H](C2CCCC2)C(=O)N(C)[C@H](C(=O)N2CCCC2)CC(=O)N1C [PP3101] | 4.9 | A (a compound having 10 or more and less than 20 is denoted as A) | A (a compound having 10 or more and less than 20 is denoted as A) | A (a compound having 10 or more and less than 20 is denoted as A) | A (a compound having 10 or more and less than 20 is denoted as A) | 0.27 | 0.27 |
| CCC[C@H]1C(=O)N[C@@H]([C@@H](C)CC)C(=O)N2CCC[C@H]2C(=O)N(C)[C@H]2C/C=C\CCN(C2=O)[C@@H](Cc2ccc(C)cc2)C(=O)N(C)CC(=O)N[C@@H](CCc2ccc(C(F)(F)F)c(OC)c2)C(=O)N2C[C@H](OCC)C[C@H]2C(=O)N(C)C2(CCC2)C(=O)N(C)[C@@H](C2CCCC2)C(=O)N(C)[C@H](C(=O)N2CCCC2)CC(=O)N1C [PP3102, (1S,4S,10S,13S,17S,20S,26S,28R,32S,38S,42Z)-20-cyclopentyl-28-ethoxy-32-[2-[3-methoxy-4-(trifluoromethyl)phenyl]ethyl]-2,14,18,21,24,36-hexamethyl-10-[(1S)-1-methylpropyl]-13-propyl-38-(p-tolylmethyl)-17-(pyrrolidine-1-carbonyl)spiro[2,8,11,14,18,21,24,30,33,36,39-undecazatetracyclo[37.5.1.0^4,8.0^26,30]pentatetracont-42-ene-23,1′-cyclobutane]-3,9,12,15,19,22,25,31,34,37,45-undecone] | 6.7 | A (a compound having 10 or more and less than 20 is denoted as A) | A (a compound having 10 or more and less than 20 is denoted as A) | A (a compound having 10 or more and less than 20 is denoted as A) | A (a compound having 10 or more and less than 20 is denoted as A) | 0.18 | 0.18 |
| CCC[C@H]1C(=O)N[C@@H]([C@@H](C)CC)C(=O)N(C)CC(=O)N(C)[C@H]2C/C=C\CCN(C2=O)[C@@H](Cc2ccc(C)cc2)C(=O)N(C)CC(=O)N[C@@H](CCc2ccc(C(F)(F)F)c(OC)c2)C(=O)N2C[C@H](OCC)C[C@H]2C(=O)N(C)C2(CCC2)C(=O)N(C)[C@@H](C2CCCC2)C(=O)N(C)[C@H](C(=O)N2CCCCC2)CC(=O)N1C [PP3104, (2S,8S,12R,14S,20S,23S,27S,30S,36S,38Z)-20-cyclopentyl-12-ethoxy-8-[2-[3-methoxy-4-(trifluoromethyl)phenyl]ethyl]-4,16,19,22,26,32,35-heptamethyl-30-[(1S)-1-methylpropyl]-23-(piperidine-1-carbonyl)-27-propyl-2-(p-tolylmethyl)spiro[1,4,7,10,16,19,22,26,29,32,35-undecazatricyclo[34.5.1.0^10,14]dotetracont-38-ene-17,1′-cyclobutane]-3,6,9,15,18,21,25,28,31,34,42-undecone] | 3.8 | A (a compound having 10 or more and less than 20 is denoted as A) | A (a compound having 10 or more and less than 20 is denoted as A) | A (a compound having 10 or more and less than 20 is denoted as A) | A (a compound having 10 or more and less than 20 is denoted as A) | 0.097 | 0.097 |
| CCC[C@H]1C(=O)N[C@@H]([C@@H](C)CC)C(=O)N(C)CC(=O)N(C)[C@H]2C/C=C\CCN(C2=O)[C@@H](Cc2ccc(C(F)(F)F)cc2)C(=O)N(C)CC(=O)N[C@@H](CCc2ccc(C(F)(F)F)c(OC)c2)C(=O)N2C[C@H](OCC)C[C@H]2C(=O)N(C)C2(CCC2)C(=O)N(C)[C@@H](C2CCCC2)C(=O)N(C)[C@H](C(=O)N2CCCC2)CC(=O)N1C [PP3105, (2S,8S,12R,14S,20S,23S,27S,30S,36S,38Z)-20-cyclopentyl-12-ethoxy-8-[2-[3-methoxy-4-(trifluoromethyl)phenyl]ethyl]-4,16,19,22,26,32,35-heptamethyl-30-[(1S)-1-methylpropyl]-27-propyl-23-(pyrrolidine-1-carbonyl)-2-[[4-(trifluoromethyl)phenyl]methyl]spiro[1,4,7,10,16,19,22,26,29,32,35-undecazatricyclo[34.5.1.0^10,14]dotetracont-38-ene-17,1′-cyclobutane]-3,6,9,15,18,21,25,28,31,34,42-undecone] | 2.5 | AA (a compound having 20 or more is denoted as AA) | AA (a compound having 20 or more is denoted as AA) | A (a compound having 10 or more and less than 20 is denoted as A) | A (a compound having 10 or more and less than 20 is denoted as A) | 0.06 | 0.06 |
| CCC[C@H]1C(=O)N[C@@H]([C@@H](C)CC)C(=O)N(C)CC(=O)N(C)[C@H]2C/C=C\CCN(C2=O)[C@@H](Cc2ccc(C)cc2)C(=O)N(C)CC(=O)N[C@@H](CCc2ccc(C(F)(F)F)c(OC)c2)C(=O)N2C[C@H](OCC)C[C@H]2C(=O)N(C)C2(CCC2)C(=O)N(C)[C@@H](C2CCCC2)C(=O)N(C)[C@H](C(=O)N2CCCC2)CC(=O)N1C [PP3106, (2S,8S,12R,14S,20S,23S,27S,30S,36S,38Z)-20-cyclopentyl-12-ethoxy-8-[2-[3-methoxy-4-(trifluoromethyl)phenyl]ethyl]-4,16,19,22,26,32,35-heptamethyl-30-[(1S)-1-methylpropyl]-27-propyl-2-(p-tolylmethyl)-23-(pyrrolidine-1-carbonyl)spiro[1,4,7,10,16,19,22,26,29,32,35-undecazatricyclo[34.5.1.0^10,14]dotetracont-38-ene-17,1′-cyclobutane]-3,6,9,15,18,21,25,28,31,34,42-undecone] | 2.9 | A (a compound having 10 or more and less than 20 is denoted as A) | A (a compound having 10 or more and less than 20 is denoted as A) | A (a compound having 10 or more and less than 20 is denoted as A) | A (a compound having 10 or more and less than 20 is denoted as A) | 0.048 | 0.048 |
| CC[C@H](C)[C@@H]1NC(=O)[C@H](CC(C)C)N(C)C(=O)CSC[C@H](C(=O)N(C)C)N(C)C(=O)[C@H](C2CCCC2)N(C)C(=O)C2(CCCC2)NC(=O)[C@@H]2CCCN2C(=O)[C@@H](CCc2cc(F)c(C(F)(F)F)c(F)c2)NC(=O)CN(C)C(=O)[C@H](Cc2ccc(C(F)(F)F)cc2)N2CC=CC[C@@H](C2=O)N(C)C(=O)CN(C)C1=O [PP3108] | 9250 | C (A compound having a KD ratio of 0.1 or more and less than 3 is denoted as C) | C (A compound having a KD ratio of 0.1 or more and less than 3 is denoted as C) | B (a compound having 3 or more and less than 10 is denoted as B) | B (a compound having 3 or more and less than 10 is denoted as B) | 870 | 870 |
